Entries after “also recorded” stand apart in the source; their conditions may differ.
Experiments:
[1] = 143 mg/kg 5-HMF, animal studies; cited from earlier work
severe hypoxia = conditions: animal model of severe hypoxia; cited from earlier work
HbO2 affinity = conditions: human subjects exposed to hypoxia, sickle cell anemia patients; cited from earlier work
hypoxia = conditions: pigs exposed to hypoxia; cited from earlier work
hemoglobin (Hb) = molecular target: T1, hemoglobin (Hb) (Homo sapiens, UniProt P68871+P69905); assay: in vitro high-throughput determination of oxygen dissociation curves (ODC) in whole blood samples; assay type: biochemical; conditions: for Hill coefficient (HC) / P50 / Hb oxygen binding affinity (Hb-O2 affinity): human whole blood, low, medium and high dosage, 37° C., 40 mmHg PCO2
T1 construct: Venous blood was collected from 20 healthy subjects (ten women, ten men) aged 18 to 40 years; from tissue; host or cells: human venous whole blood (erythrocytes) of healthy volunteers
T1 sequence (P69905 2-142 limits assumed): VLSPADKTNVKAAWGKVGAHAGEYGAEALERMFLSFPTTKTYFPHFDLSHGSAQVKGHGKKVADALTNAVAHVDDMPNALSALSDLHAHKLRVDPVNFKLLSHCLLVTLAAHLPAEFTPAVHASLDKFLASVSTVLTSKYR
T1 sequence (P68871 2-147 limits assumed): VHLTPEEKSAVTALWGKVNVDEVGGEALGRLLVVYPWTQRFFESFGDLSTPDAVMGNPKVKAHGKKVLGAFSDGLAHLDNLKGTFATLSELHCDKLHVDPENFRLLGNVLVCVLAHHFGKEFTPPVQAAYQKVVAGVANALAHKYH
Description: Venous blood was collected from 20 healthy subjects (ten women, ten men) aged 18 to 40 years. […] Immediately after blood collection, blood gas analysis was performed (ABL800 flex, radiometer) and samples were stored on ice and processed within eight hours.
The recommended maximum daily dose of 5-HMF of Sanopal® (Cyl, Austria) is 720 mg. Assuming its total distribution in the blood volume of a 70 kg person to be approximately 5000 ml (16), the low dose of 5-HMF was defined as 0.14 mg/ml ([…]).
To ensure stable conditions during the ODC measurement, the measurement setup was set up in an environmentally controlled, closed device (EC box). This box is temperature-controlled (37° C.) and contains the experimental setup consisting of a humidifier, a cover for the microplate reader, tubes and valves. A modified 96-well plate was used (a special coating process ensures a thin, yet adherent layer of red blood cells for optimal fluorescence measurement), which enabled a constant gas flow across all wells in a meandering gas flow channel. The measuring plate is integrated into a gas system consisting of gas bags, gas hoses, humidifiers, gas mixers and a peristaltic pump.
The blood samples were placed in the individual wells using a special stamping technique so that a film consisting of a few cell layers could form. Oxygen saturation was measured in each well using dual-wavelength spectroscopy and oxygen partial pressure was measured using the fluorescence lifetime of commercial oxygen sensors at the inlet and outlet ports of the measuring plate. An oxygen ramp of around 20% by volume to 0% by volume was formed, so that a dissociation curve can be measured. The measurements were carried out every minute in a conventional fluorescence plate reader, so that up to 92 samples of whole blood could be analyzed within ˜25 min.
For the ODC experiments, gas mixtures containing 40 mmHg PCO2 were used, and the temperature was kept constant at 37° C.
The statistical analysis was performed using IBM SPSS Statistics 25. The unpaired t-test was used to analyze baseline differences between substance compositions. ANOVA with repeated measures design was used to determine P50 and HC differences between the different dosages and substance compositions.
Post-hoc t-test (Bonferroni-corrected) and ANOVA with repeated measures design were used for each individual substance or a combination of two substances to identify the location and magnitude of changes. Linear regression analysis was used to determine the concentration dependence for each substance. P<0.05 was considered significant. Data are presented as mean±SD.

Row | SMILES | adverse effects [1] | hemodynamic stability and microvascular oxygenation (severe hypoxia) | HbO2 affinity (HbO2 affinity) | arterial oxygen saturation (SO2) (hypoxia) | hypoxia-associated increase in pulmonary arterial pressure (hypoxia) | Hill coefficient (HC) (hemoglobin (Hb)) | P50 / Hb oxygen binding affinity (Hb-O2 affinity) (hemoglobin (Hb)) | dose dependence of P50 (hemoglobin (Hb); linear regression over low, medium, high dose)
1 | O=Cc1ccc(CO)o1 [5-HMF, 5-hydroxymethyl-2-furfural] | increase in serum gamma globulin levels and the relative spleen weight | protect against hemodynamic instability and maintain microvascular oxygenation | increases in HbO2 affinity were detected | improved arterial oxygen saturation | attenuation | significantly changed | strong dose-dependent increase in Hb-O2 affinity; also recorded: significantly changed P50; also recorded: strong dose-dependent increase in HbO2 affinity; also recorded: significant reduction in the P50 | –
2 | O=C(O)CCC(=O)C(=O)O [α-KG, α-ketoglutaric acid] | – | – | – | – | – | altered | altered P50 | lowest effect
